Source: the supplement of paper PMC10307832

How the values were obtained:
Assay in all cases: relative viability (nuclei count vs DMSO), 5 days (fraction); higher = more cells survive
Doramapimod + Crizotinib = compound: Cc1ccc(-n2nc(C(C)(C)C)cc2NC(=O)Nc2ccc(OCCN3CCOCC3)c3ccccc23)cc1 [Doramapimod] + C[C@@H](Oc1cc(-c2cnn(C3CCNCC3)c2)cnc1N)c1c(Cl)ccc(F)c1Cl [Crizotinib] (partner 1 µM)
Method in brief: (§1)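 Medians of duplicate plates are given as relative viability. That measure is the nuclei count in treated wells divided by the count in vehicle wells. Counts were taken on 4× images of lung cancer cell lines in 1536-well plates, 5 days after pin-tool dosing the day after seeding with one drug alone or a fixed anchor-drug dose plus five library-drug doses (not always all listed) in √10 steps.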

IPA-3 + Phenformin = compound: C1=CC=C2C(=C1)C=CC(=C2SSC3=C(C=CC4=CC=CC=C43)O)O [IPA-3] + N=C(N)NC(=N)NCCc1ccccc1 [Phenformin] (partner 250 µM)
Method in brief: as §1

RAF265 + Bortezomib = compound: Cn1c(Nc2ccc(C(F)(F)F)cc2)nc2cc(Oc3ccnc(-c4ncc(C(F)(F)F)[nH]4)c3)ccc21 [RAF265] + CC(C)C[C@H](NC(=O)[C@H](Cc1ccccc1)NC(=O)c1cnccn1)B(O)O [Bortezomib] (partner 0.002 µM)
Method in brief: as §1

IPA-3 + Palbociclib = compound: C1=CC=C2C(=C1)C=CC(=C2SSC3=C(C=CC4=CC=CC=C43)O)O [IPA-3] + CC(=O)c1c(C)c2cnc(Nc3ccc(N4CCNCC4)cn3)nc2n(C2CCCC2)c1=O [Palbociclib] (partner 0.5 µM)
Method in brief: as §1

Row | Cell Line | relative viability (Doramapimod + Crizotinib; first compound 0.02 µM) | relative viability (Doramapimod + Crizotinib; first compound 0.06325 µM) | relative viability (Doramapimod + Crizotinib; first compound 0.2 µM) | relative viability (Doramapimod + Crizotinib; first compound 0.6325 µM) | relative viability (Doramapimod + Crizotinib; first compound 2 µM) | relative viability (IPA-3 + Phenformin; first compound 0.2 µM) | relative viability (IPA-3 + Phenformin; first compound 0.6325 µM) | relative viability (IPA-3 + Phenformin; first compound 2 µM) | relative viability (IPA-3 + Phenformin; first compound 6.325 µM) | relative viability (IPA-3 + Phenformin; first compound 20 µM) | relative viability (RAF265 + Bortezomib; first compound 0.01 µM) | relative viability (RAF265 + Bortezomib; first compound 0.03162 µM) | relative viability (RAF265 + Bortezomib; first compound 0.1 µM) | relative viability (RAF265 + Bortezomib; first compound 0.3162 µM) | relative viability (RAF265 + Bortezomib; first compound 1 µM) | relative viability (IPA-3 + Palbociclib; first compound 0.2 µM) | relative viability (IPA-3 + Palbociclib; first compound 0.6325 µM) | relative viability (IPA-3 + Palbociclib; first compound 2 µM) | relative viability (IPA-3 + Palbociclib; first compound 6.325 µM) | relative viability (IPA-3 + Palbociclib; first compound 20 µM)
1 | HCC-78 | 0.356 | 0.364 | 0.336 | 0.399 | 0.358 | 0.768 | 0.64 | 0.728 | 0.801 | 0.692 | 0.535 | 0.506 | 0.52 | 0.956 | 0.423 | 0.53 | 0.435 | 0.485 | 0.486 | 0.484
2 | NCI-H2405 | 0.822 | 0.826 | 0.877 | 0.996 | 0.798 | 0.437 | 0.386 | 0.418 | 0.389 | 0.489 | 0.985 | 0.898 | 0.995 | 0.975 | 0.422 | 0.561 | 0.49 | 0.519 | 0.529 | 0.544
3 | HOP-62 | 0.888 | 1.02 | 1.12 | 0.597 | 0.968 | 0.79 | 0.582 | 0.679 | 0.636 | 0.645 | 1.15 | – | 1.05 | 0.674 | 0.788 | 0.435 | 0.365 | 0.414 | 0.451 | 0.513
4 | NCI-H650 | 0.77 | 0.661 | 0.826 | 0.783 | 0.668 | 0.492 | 0.511 | 0.457 | 0.463 | 0.451 | 0.836 | 0.781 | 0.793 | 0.539 | 0.32 | 0.373 | 0.361 | 0.323 | 0.361 | 0.426
5 | BEN | 0.855 | 0.683 | 0.85 | 0.742 | 0.761 | 0.268 | 0.291 | 0.243 | 0.243 | 0.388 | 0.993 | 0.878 | 0.777 | 0.85 | 0.547 | 0.432 | 0.471 | 0.43 | 0.532 | 0.457
6 | SW 1573 | 0.827 | 0.613 | 0.646 | 0.75 | 0.743 | 0.465 | 0.35 | 0.401 | 0.342 | 0.17 | 1.38 | 0.91 | 1.17 | 0.873 | 0.514 | 0.492 | 0.332 | 0.412 | 0.363 | 0.0729
7 | ChaGo-K-1 | 1.15 | 1.16 | 1.17 | – | 1.11 | 0.614 | 0.494 | 0.494 | 0.494 | 0.605 | 0.92 | 1.08 | 1.12 | 1.03 | 0.662 | 0.952 | 0.824 | 0.923 | 0.955 | 1.02
8 | NCI-H1755 | 0.886 | 0.905 | 0.788 | 0.768 | 0.833 | 0.675 | 0.582 | 0.622 | 0.612 | 0.557 | 1.01 | 0.921 | 0.892 | 0.842 | 0.536 | 0.464 | 0.488 | 0.422 | 0.43 | 0.44
